Experimental data taken from patent US20240270762A1, “PENICILLIN-BINDING PROTEIN INHIBITORS” (priority 2021, published 2024).
pEC50: −log10 of the molar value. Converted amounts (≈) assume the structure as drawn. Read-outs that look alike come from different tables or passages of the source.

Columns and labels:
P. aeruginosa ATCC 35151 = experiment: microbe, parasite or virus in culture; assay type: cell-based; settings: Pseudomonas aeruginosa, ATCC35151, read-out: Minimum inhibitory concentration, P. aeruginosa ATCC 35151
P. aeruginosa CDC-0095 = experiment: microbe, parasite or virus in culture; assay type: cell-based; settings: Pseudomonas aeruginosa, CDC0095, read-out: Minimum inhibitory concentration, P. aeruginosa CDC-0095
A. baumannii 1258916 = experiment: microbe, parasite or virus in culture; assay type: cell-based, Acinetobacter baumannii
A. baumannii PBP1a = biological target: T1, A. baumannii PBP1a (Acinetobacter baumannii, UniProt A0ABX6CK30); experiment: Bocillin-FL competition binding via gel filtration, A. baumannii PBP1a; settings: competition binding assay using Bocillin-FL via gel filtration; read-out: A. baumannii PBP1a Potency
T1 sequence (A0ABX6CK30 1-851): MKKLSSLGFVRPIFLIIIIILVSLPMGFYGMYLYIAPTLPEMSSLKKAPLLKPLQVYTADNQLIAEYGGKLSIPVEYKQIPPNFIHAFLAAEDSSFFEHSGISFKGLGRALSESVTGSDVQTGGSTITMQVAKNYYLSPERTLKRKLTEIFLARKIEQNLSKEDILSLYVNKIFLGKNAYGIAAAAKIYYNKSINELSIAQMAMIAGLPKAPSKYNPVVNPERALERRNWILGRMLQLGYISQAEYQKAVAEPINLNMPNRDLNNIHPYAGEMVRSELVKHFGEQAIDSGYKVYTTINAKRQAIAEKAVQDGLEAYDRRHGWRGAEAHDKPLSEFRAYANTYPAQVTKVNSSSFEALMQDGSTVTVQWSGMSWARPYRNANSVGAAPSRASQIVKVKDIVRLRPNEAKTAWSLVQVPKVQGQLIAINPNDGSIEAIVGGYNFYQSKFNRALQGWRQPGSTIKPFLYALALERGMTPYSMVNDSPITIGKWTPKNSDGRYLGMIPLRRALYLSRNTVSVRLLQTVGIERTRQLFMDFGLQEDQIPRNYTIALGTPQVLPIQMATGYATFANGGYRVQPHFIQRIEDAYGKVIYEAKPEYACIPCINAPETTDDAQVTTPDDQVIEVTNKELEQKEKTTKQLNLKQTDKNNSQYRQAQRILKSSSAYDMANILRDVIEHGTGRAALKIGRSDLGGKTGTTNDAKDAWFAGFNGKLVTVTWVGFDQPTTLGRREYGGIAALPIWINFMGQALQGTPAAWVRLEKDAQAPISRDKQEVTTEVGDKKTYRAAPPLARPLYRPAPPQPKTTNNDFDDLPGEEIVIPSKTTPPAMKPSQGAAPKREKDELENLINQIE
Outline: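 Enzyme was pre-incubated with rising inhibitor concentrations, then Bocillin-FL was added and incubated 15 minutes more. Bound probe was separated by gel filtration and fluorescence read. EC50 came from fitting fraction of PBP labelled versus inhibitor concentration to a Hill equation with ymin, ymax and n.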

A. baumannii ATCC 17978 = experiment: microbe, parasite or virus in culture; assay type: cell-based; settings: Acinetobacter baumannii
A. baumannii CDC-0033 = experiment: microbe, parasite or virus in culture; assay type: cell-based; settings: Acinetobacter baumannii
P. aeruginosa CDC-0054 = experiment: microbe, parasite or virus in culture; assay type: cell-based; settings: Pseudomonas aeruginosa, CDC0054, read-out: Minimum inhibitory concentration, P. aeruginosa CDC-0054
P. aeruginosa CDC-0090 = experiment: microbe, parasite or virus in culture; assay type: cell-based; settings: Pseudomonas aeruginosa, CDC0090, read-out: Minimum inhibitory concentration, P. aeruginosa CDC-0090
P. aeruginosa ATCC 27853 = experiment: microbe, parasite or virus in culture; assay type: cell-based; settings: Pseudomonas aeruginosa, ATCC27853, read-out: Minimum inhibitory concentration, P. aeruginosa ATCC 27853
[1] = system: B. humptydooensis ATCC BAA-2767; experiment: microbe, parasite or virus in culture; assay type: cell-based; settings: Burkholderia humptydooensis, ATCCBAA2767, read-out: Minimum inhibitory concentration (MIC), B. humptydooensis ATCC BAA-2767
[2] = system: B. thailandensis ATCC 700388; experiment: microbe, parasite or virus in culture; assay type: cell-based; settings: Burkholderia thailandensis, ATCC700388, read-out: Minimum inhibitory concentration (MIC), B. thailandensis ATCC 700388
[3] = Acinetobacter baumannii, 1258916, read-out: MIC, A. baumannii 1258916
[4] = ATCC17978, read-out: MIC, A. baumannii ATCC 17978
[5] = CDC0033, read-out: MIC, A. baumannii CDC-0033
[6] = Acinetobacter baumannii, 1258916, read-out: Minimum inhibitory concentration (MIC), A. baumannii 1258916
[7] = ATCC17978, read-out: Minimum inhibitory concentration (MIC), A. baumannii ATCC 17978
[8] = CDC0033, read-out: Minimum inhibitory concentration (MIC), A. baumannii CDC-0033

| Compound | MIC (P. aeruginosa ATCC 35151) | MIC (P. aeruginosa CDC-0095) | MIC (A. baumannii 1258916; [3]) | pEC50 (A. baumannii PBP1a) | MIC (A. baumannii ATCC 17978; [4]) | MIC (A. baumannii CDC-0033; [5]) | MIC (P. aeruginosa CDC-0054) | MIC (P. aeruginosa CDC-0090) | MIC (P. aeruginosa ATCC 27853) | MIC [1] | MIC [2] | MIC (A. baumannii 1258916; [6]) | MIC (A. baumannii ATCC 17978; [7]) | MIC (A. baumannii CDC-0033; [8]) |
| --- | --- | --- | --- | --- | --- | --- | --- | --- | --- | --- | --- | --- | --- | --- |
| O=C(O)c1c(F)ccc2c1OB(O)[C@@H](NC(=O)[C@H](NC(=O)N1CCN(C3CCN(C(=O)c4ccc(F)c(O)c4Cl)CC3)C1=O)c1cc(F)c(O)c(O)c1Cl)C2 [Example 438, (R)-3-((R)-2-(3-(1-(2-chloro-4-fluoro-3-hydroxybenzoyl)piperidin-4-yl)-2-oxoimidazolidine-1-carboxamido)-2-(2-chloro-5-fluoro-3,4-dihydroxyphenyl)acetamido)-7-fluoro-2-hydroxy-3,4-dihydro-2H-benzo[e][1,2]oxaborinine-8-carboxylic acid] | < 1 µg/mL | < 1 µg/mL | < 1 µg/mL | > 5.00 | < 1 µg/mL | < 1 µg/mL | < 1 µg/mL | 2 to 4 µg/mL (≈ 2.47 to 4.94 µM) | < 1 µg/mL | < 1 µg/mL | < 1 µg/mL |  |  |  |
| O=C(O)c1c(F)ccc2c1OB(O)[C@@H](NC(=O)[C@H](NC(=O)N1CCN(C3CCN(Cc4ccncc4)CC3)C1=O)c1cc(F)c(O)c(O)c1Cl)C2 [Example 493, (R)-3-((R)-2-(2-chloro-5-fluoro-3,4-dihydroxyphenyl)-2-(2-oxo-3-(1-(pyridin-4-ylmethyl)piperidin-4-yl)imidazolidine-1-carboxamido)acetamido)-7-fluoro-2-hydroxy-3,4-dihydro-2H-benzo[e][1,2]oxaborinine-8-carboxylic acid] | < 1 µg/mL | < 1 µg/mL |  | > 5.00 |  |  | 2 to 4 µg/mL (≈ 2.74 to 5.49 µM) | < 1 µg/mL | 2 to 4 µg/mL (≈ 2.74 to 5.49 µM) | < 1 µg/mL | < 1 µg/mL | < 1 µg/mL | < 1 µg/mL | 2 to 4 µg/mL (≈ 2.74 to 5.49 µM) |
| O=C(NCCS(=O)(=O)N1CCN(C(=O)N[C@@H](C(=O)N[C@H]2Cc3ccc(F)c(C(=O)O)c3OB2O)c2ccc(P(=O)(O)O)cc2)C1=O)c1ccc(O)c(O)c1Cl (single isomer, unassigned) [Example 168] | 2 to 4 µg/mL (≈ 2.42 to 4.83 µM) | 8 to 16 µg/mL (≈ 9.66 to 19.3 µM) | 2 to 4 µg/mL (≈ 2.42 to 4.83 µM) | 3.60 to 4.30 | < 1 µg/mL | 32 to 64 µg/mL (≈ 38.7 to 77.3 µM) | 32 to 64 µg/mL (≈ 38.7 to 77.3 µM) | 32 to 64 µg/mL (≈ 38.7 to 77.3 µM) | 8 to 16 µg/mL (≈ 9.66 to 19.3 µM) | < 1 µg/mL | < 1 µg/mL |  |  |  |
| O=C(O)c1c(F)ccc2c1OB(O)[C@@H](NC(=O)[C@H](NC(=O)N1CCN(C3CCN(C(=O)c4cc(O)cc(O)c4)CC3)C1=O)c1cc(F)c(O)c(O)c1Cl)C2 (single isomer, unassigned) [Example 442] | < 1 µg/mL | < 1 µg/mL | < 1 µg/mL | > 5.00 | < 1 µg/mL | < 1 µg/mL | < 1 µg/mL | < 1 µg/mL | < 1 µg/mL | < 1 µg/mL | < 1 µg/mL |  |  |  |
| O=C(O)c1c(F)ccc2c1OB(O)[C@@H](NC(=O)[C@H](NC(=O)N1CCN(Cc3ccc(O)c(O)c3Cl)C(=O)C1=O)c1cc(F)c(P(=O)(O)O)c(F)c1)C2 [Example 502, (R)-3-((R)-2-(4-(2-chloro-3,4-dihydroxybenzyl)-2,3-dioxopiperazine-1-carboxamido)-2-(3,5-difluoro-4-phosphonophenyl)acetamido)-7-fluoro-2-hydroxy-3,4-dihydro-2H-benzo[e][1,2]oxaborinine-8-carboxylic acid] | < 1 µg/mL | 2 to 4 µg/mL (≈ 2.59 to 5.19 µM) |  | 4.30 to 5.00 |  |  | < 1 µg/mL | < 1 µg/mL | < 1 µg/mL | < 1 µg/mL | < 1 µg/mL | < 1 µg/mL | < 1 µg/mL | < 1 µg/mL |
| O=C(O)c1c(F)ccc2c1OB(O)[C@@H](NC(=O)[C@H](NC(=O)N1CCN(C3CCN(C(=O)c4ccc(O)c(O)c4Cl)CC3)C1=O)c1ccc(P(=O)(O)O)cc1)C2 [Example 494, (R)-3-((R)-2-(3-(1-(2-chloro-3,4-dihydroxybenzoyl)piperidin-4-yl)-2-oxoimidazolidine-1-carboxamido)-2-(4-phosphonophenyl)acetamido)-7-fluoro-2-hydroxy-3,4-dihydro-2H-benzo[e][1,2]oxaborinine-8-carboxylic acid] | < 1 µg/mL | 8 to 16 µg/mL (≈ 9.95 to 19.9 µM) |  | 3.60 to 4.30 |  |  | < 1 µg/mL | < 1 µg/mL | < 1 µg/mL | < 1 µg/mL | < 1 µg/mL | < 1 µg/mL | < 1 µg/mL | < 1 µg/mL |
| O=C(O)c1c(F)ccc2c1OB(O)[C@@H](NC(=O)C(NC(=O)N1CCN(C3CCN(C(=O)Nc4ccc(F)c(O)c4F)CC3)C(=O)C1=O)c1cc(F)c(O)c(O)c1Cl)C2 (stereo partly drawn) [Example 486, (3R)-3-(2-(2-chloro-5-fluoro-3,4-dihydroxyphenyl)-2-(4-(1-((2,4-difluoro-3-hydroxyphenyl)carbamoyl)piperidin-4-yl)-2,3-dioxopiperazine-1-carboxamido)acetamido)-7-fluoro-2-hydroxy-3,4-dihydro-2H-benzo[e][1,2]oxaborinine-8-carboxylic acid] | < 1 µg/mL | < 1 µg/mL |  | > 5.00 |  |  | < 1 µg/mL | 2 to 4 µg/mL (≈ 2.39 to 4.78 µM) | 2 to 4 µg/mL (≈ 2.39 to 4.78 µM) | 2 to 4 µg/mL (≈ 2.39 to 4.78 µM) | 2 to 4 µg/mL (≈ 2.39 to 4.78 µM) | < 1 µg/mL | < 1 µg/mL | 2 to 4 µg/mL (≈ 2.39 to 4.78 µM) |
| O=C(O)c1c(F)ccc2c1OB(O)[C@@H](NC(=O)[C@H](NC(=O)N1CCN(C3CCN(C(=O)Nc4cc(O)cc(F)c4)CC3)C1=O)c1cc(F)c(O)c(O)c1Cl)C2 (single isomer, unassigned) [Example 450] | < 1 µg/mL | < 1 µg/mL | < 1 µg/mL | > 5.00 | < 1 µg/mL | < 1 µg/mL | < 1 µg/mL | < 1 µg/mL | < 1 µg/mL | 8 to 16 µg/mL (≈ 10.1 to 20.2 µM) | < 1 µg/mL |  |  |  |
| O=C(O)c1c(F)ccc2c1OB(O)[C@@H](NC(=O)[C@H](NC(=O)N1CCN(C3CCN(C(=O)c4ccc(F)c(O)c4)CC3)C1=O)c1cc(F)c(O)c(O)c1Cl)C2 (single isomer, unassigned) [Example 435] | < 1 µg/mL | < 1 µg/mL | < 1 µg/mL | > 5.00 | < 1 µg/mL | < 1 µg/mL | < 1 µg/mL | < 1 µg/mL | < 1 µg/mL | < 1 µg/mL | < 1 µg/mL |  |  |  |
| O=C(O)c1c(F)ccc2c1OB(O)[C@@H](NC(=O)C(NC(=O)N1CCN(C3CCN(C(=O)Nc4cc(O)ccc4Cl)CC3)C(=O)C1=O)c1cc(F)c(O)c(O)c1Cl)C2 (stereo partly drawn) [Example 483, (3R)-3-(2-(2-chloro-5-fluoro-3,4-dihydroxyphenyl)-2-(4-(1-((2-chloro-5-hydroxyphenyl)carbamoyl)piperidin-4-yl)-2,3-dioxopiperazine-1-carboxamido)acetamido)-7-fluoro-2-hydroxy-3,4-dihydro-2H-benzo[e][1,2]oxaborinine-8-carboxylic acid] | < 1 µg/mL | 2 to 4 µg/mL (≈ 2.39 to 4.79 µM) | < 1 µg/mL | > 5.00 | < 1 µg/mL | 8 to 16 µg/mL (≈ 9.58 to 19.2 µM) | 2 to 4 µg/mL (≈ 2.39 to 4.79 µM) | 2 to 4 µg/mL (≈ 2.39 to 4.79 µM) | 2 to 4 µg/mL (≈ 2.39 to 4.79 µM) | > 128 µg/mL | 32 to 64 µg/mL (≈ 38.3 to 76.6 µM) |  |  |  |
